We go through 26 compounds from patent publication US20070049593A1 (priority 2004, published 2007).

The experiment has as its target T1, HCV polymerase (Hepatitis C virus genotype 1b, UniProt P26663).
T1 construct: a region encoding NS5B (J Virol 1991 March, 65(3), 1105-13, 544 amino acids after deletion of 47 amino acids on the C-terminal); 6xHis (C); made in house; host or cells: Escherichia coli
As to the kind of experiment: biochemical. Further details: species or system HCV BK strain. In outline:
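His-tagged NS5B (BK strain, 47-aa C-terminal deletion, E. coli-expressed) at 0.5 μg/ml copied 5 μg/ml run-off RNA bearing the HCV 3′ UTR with 2 μM UTP plus [3H]UTP, 50 μM ATP/GTP, in pH 7.5 Tris with 5 mM MgCl2, 25 °C, 90 min. TCA-precipitated RNA was counted and IC50 calculated.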

Structures can show the parent of a compound that is named as a salt. Bounds are passed on as bounds.

T1 sequence (P26663 2420-2963): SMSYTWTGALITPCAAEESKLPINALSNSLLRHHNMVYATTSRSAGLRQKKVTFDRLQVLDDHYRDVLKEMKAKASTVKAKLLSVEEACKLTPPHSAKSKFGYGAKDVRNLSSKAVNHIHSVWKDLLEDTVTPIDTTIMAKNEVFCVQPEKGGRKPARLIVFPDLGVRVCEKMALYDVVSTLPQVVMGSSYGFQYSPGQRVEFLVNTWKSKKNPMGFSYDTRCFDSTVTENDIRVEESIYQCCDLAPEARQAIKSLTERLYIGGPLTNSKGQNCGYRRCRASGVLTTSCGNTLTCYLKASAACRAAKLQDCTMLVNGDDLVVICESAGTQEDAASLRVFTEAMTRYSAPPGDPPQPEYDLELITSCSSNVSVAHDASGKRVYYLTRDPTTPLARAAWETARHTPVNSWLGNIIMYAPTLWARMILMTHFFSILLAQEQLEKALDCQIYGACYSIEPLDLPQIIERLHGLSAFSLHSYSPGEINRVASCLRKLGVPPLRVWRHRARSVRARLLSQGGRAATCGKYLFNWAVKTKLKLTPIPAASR

Broadly, the IC50 is the point on the concentration scale where inhibition reaches its midpoint. For the compound `CCc1ccc2c(c1)N(CCN1CCCCC1)CCn1c-2c(C2CCCCC2)c2ccc(C(=O)O)cc21` [Example 1-295, 13-cyclohexyl-3-ethyl-5-[2-(piperidin-1-yl)ethyl]-6,7-dihydro-5H-benzo[5,6][1,4]diazepino[7,1-a]indole-10-carboxylic acid dihydrochloride], the IC50 was less than 100 nM.
Compound `COc1cccc2c1OCCn1c-2c(C2CCCCC2)c2ccc(C(=O)O)cc21` [Example 2-475, 12-cyclohexyl-4-methoxy-6,7-dihydro-5-oxa-7a-azadibenzo[a,e]azulene-9-carboxylic acid] returned an IC50 of less than 100 nM.
`COC(=O)c1ccc(NC(=O)C(C)(C)NC(=O)c2ccc3c(C4CCCCC4)c4n(c3c2)CCOc2cc(OC)ccc2-4)cc1` [Example 2-349, methyl 4-{2-[(12-cyclohexyl-3-methoxy-6,7-dihydro-5-oxa-7a-azadibenzo[a,e]azulene-9-carbonyl)amino]-2-methylpropionylamino}benzoate] came in with an IC50 of less than 100 nM.
Under `Nc1cccc2c1OCCn1c-2c(C2CCCCC2)c2ccc(C(=O)O)cc21` [Example 2-476, 4-amino-12-cyclohexyl-6,7-dihydro-5-oxa-7a-azadibenzo[a,e]azulene-9-carboxylic acid] stands less than 100 nM; under `CC(C)N(CCN1CCCCC1)c1cccc2c1OCCn1c-2c(C2CCCCC2)c2ccc(C(=O)O)cc21` [Example 2-161, 12-cyclohexyl-4-{N-isopropyl-N-[2-(piperidin-1-yl)ethyl]amino}-6,7-dihydro-5-oxa-7a-azadibenzo[a,e]azulene-9-carboxylic acid dihydrochloride], less than 100 nM.
In turn, `CC(=O)N1CCN(C(=O)CN2CCn3c(c(C4CCCCC4)c4ccc(C(=O)O)cc43)-c3ccccc32)CC1` [Example 1-51, 5-[2-(4-acetylpiperazin-1-yl)-2-oxoethyl]-13-cyclohexyl-6,7-dihydro-5H-benzo[5,6][1,4]diazepino[7,1-a]indole-10-carboxylic acid monohydrochloride] returned an IC50 of less than 100 nM.
In turn, `CCN(CCCN1CCCCC1)c1cccc2c1OCCn1c-2c(C2CCCCC2)c2ccc(C(=O)O)cc21` [Example 2-169, 12-cyclohexyl-4-{N-ethyl-N-[3-(piperidin-1-yl)propyl]amino}-6,7-dihydro-5-oxa-7a-azadibenzo[a,e]azulene-9-carboxylic acid dihydrochloride] displayed a half-maximal inhibitory concentration (IC50) of less than 100 nM.
The compound `COC(=O)[C@@H](NC(=O)c1ccc2c(C3CCCCC3)c3n(c2c1)CCOc1cc(OC)ccc1-3)c1ccc(O)cc1` [Example 2-270, methyl (S)-2-[(12-cyclohexyl-3-methoxy-6,7-dihydro-5-oxa-7a-azadibenzo[a,e]azulene-9-carbonyl)amino]-2-(4-hydroxyphenyl)acetate] came in with an IC50 of less than 100 nM.
For `COc1ccc2c(c1)OCCn1c-2c(C2CCCCC2)c2ccc(C(=O)NC(C)(C)c3nc4cc(CO)ccc4[nH]3)cc21` [Example 2-405, N-[1-(5-hydroxymethyl-1H-benzimidazol-2-yl)-1-methylethyl]-12-cyclohexyl-3-methoxy-6,7-dihydro-5-oxa-7a-azadibenzo[a,e]azulene-9-carboxamide], the IC50 is less than 100 nM.
The compound `COCC1CCCN(CCN2CCn3c(c(C4CCCCC4)c4ccc(C(=O)O)cc43)-c3ccc(OCc4ccccc4)cc32)C1` (centres unmarked) [Example 1-358, 3-benzyloxy-13-cyclohexyl-5-[2-(3-methoxymethylpiperidin-1-yl)ethyl]-6,7-dihydro-5H-benzo[5,6][1,4]diazepino[7,1-a]indole-10-carboxylic acid dihydrochloride] registered an IC50 of less than 100 nM.
As to `CN1CCN(C(=O)C(C)(C)NC(=O)c2ccc3c(C4CCCCC4)c4n(c3c2)CCOc2ccccc2-4)CC1` [Example 2-290, N-[1,1-dimethyl-2-(4-methylpiperazin-1-yl)-2-oxoethyl]-12-cyclohexyl-6,7-dihydro-5-oxa-7a-azadibenzo[a,e]azulene-9-carboxamide], the IC50 lay in the range of 100 to 1000 nM.
`COc1ccc2c(c1)OCCn1c-2c(C2CCCCC2)c2ccc(C(=O)N[C@@H](Cc3ccc(O)cc3)CN(C)C)cc21` [Example 2-308, N—[(S)-2-dimethylamino-1-(4-hydroxybenzyl)ethyl]-12-cyclohexyl-3-methoxy-6,7-dihydro-5-oxa-7a-azadibenzo[a,e]azulene-9-carboxamide] had an IC50 of less than 100 nM.
As for `CC(C)(NC(=O)c1ccc2c(C3CCCCC3)c3n(c2c1)CCOc1ccccc1-3)c1nc2cc(-c3nnn[nH]3)ccc2[nH]1` [Example 2-311, N-{1-methyl-1-[5-(1H-tetrazol-5-yl)-1H-benzimidazol-2-yl]ethyl}-12-cyclohexyl-6,7-dihydro-5-oxa-7a-azadibenzo[a,e]azulene-9-carboxamide], the IC50 was less than 100 nM.
`O=C(O)c1ccc2c(C3CCCCC3)c3n(c2c1)CCN(CCN1CCCCC1)c1c(F)cccc1-3` [Example 1-149, 13-cyclohexyl-4-fluoro-5-[2-(piperidin-1-yl)ethyl]-6,7-dihydro-5H-benzo[5,6][1,4]diazepino[7,1-a]indole-10-carboxylic acid dihydrochloride] yielded an IC50 of less than 100 nM.
Take `O=C(O)c1ccc2c(C3CCCCC3)c3n(c2c1)CCN(CC(=O)N1CCSCC1)c1ccccc1-3` [Example 1-7, 13-cyclohexyl-5-[2-oxo-2-(thiomorpholin-4-yl)ethyl]-6,7-dihydro-5H-benzo[5,6][1,4]diazepino[7,1-a]indole-10-carboxylic acid monohydrochloride]: the IC50 is less than 100 nM.
With `COC1CCCN(CCN2CCn3c(c(C4CCCCC4)c4ccc(C(=O)O)cc43)-c3ccc(C)cc32)C1` (centres unmarked) [Example 1-266, 13-cyclohexyl-5-[2-(3-methoxypiperidin-1-yl)ethyl]-3-methyl-6,7-dihydro-5H-benzo[5,6][1,4]diazepino[7,1-a]indole-10-carboxylic acid dihydrochloride], the IC50 was less than 100 nM.
Under `O=C(O)c1ccc2c(C3CCCCC3)c3n(c2c1)CCN(CCCC1CCCN(C2CCCC2)C1)c1cc(Cl)ccc1-3` (centres unmarked) [Example 1-412, 3-chloro-13-cyclohexyl-5-[3-(1-cyclopentylpiperidin-3-yl)propyl]-6,7-dihydro-5H-benzo[5,6][1,4]diazepino[7,1-a]indole-10-carboxylic acid dihydrochloride] stands less than 100 nM; under `CCCS(=O)(=O)NC(=O)c1ccc2c(C3CCCCC3)c3n(c2c1)CCN(CC(=O)N1CCN(CC)CC1)c1ccccc1-3` [Example 1-129, N-{13-cyclohexyl-5-[2-(4-ethylpiperazin-1-yl)-2-oxoethyl]-6,7-dihydro-5H-benzo[5,6][1,4]diazepino[7,1-a]indole-10-carbonyl}propane-1-sulfonamide dihydrochloride], less than 100 nM.
Compound `CCC1CCCN(CCN2CCn3c(c(C4CCCCC4)c4ccc(C(=O)O)cc43)-c3ccc(C(C)C)cc32)C1` (centres unmarked) [Example 1-341, 13-cyclohexyl-5-[2-(3-ethylpiperidin-1-yl)ethyl]-3-isopropyl-6,7-dihydro-5H-benzo[5,6][1,4]diazepino[7,1-a]indole-10-carboxylic acid dihydrochloride] registered an IC50 of less than 100 nM.
Under `COc1ccc2c(c1)OCCn1c-2c(C2CCCCC2)c2ccc(C(=O)NC(Cc3cccc(O)c3)C(=O)O)cc21` (centres unmarked) [Example 2-355, 2-[(12-cyclohexyl-3-methoxy-6,7-dihydro-5-oxa-7a-azadibenzo[a,e]azulene-9-carbonyl)amino]-3-(3-hydroxyphenyl)propionic acid] stands less than 100 nM; under `O=C(O)c1ccc2c(C3CCCCC3)c3n(c2c1)CCN(CCN1CCCCC1)c1cc(Cl)ccc1-3` [Example 1-14, 3-chloro-13-cyclohexyl-5-[2-(piperidin-1-yl)ethyl]-6,7-dihydro-5H-benzo[5,6][1,4]diazepino[7,1-a]indole-10-carboxylic acid dihydrochloride], less than 100 nM.
As for `CCC1CCCN(CCN2CCn3c(c(C4CCCCC4)c4ccc(C(=O)O)cc43)-c3ccc(OCC(C)C)cc32)C1` (centres unmarked) [Example 1-376, 13-cyclohexyl-5-[2-(3-ethylpiperidin-1-yl)ethyl]-3-isobutoxy-6,7-dihydro-5H-benzo[5,6][1,4]diazepino[7,1-a]indole-10-carboxylic acid dihydrochloride], the figure is less than 100 nM; as for `O=C(O)c1ccc2c(C3CCCCC3)c3n(c2c1)CCOc1c-3cccc1N(CC(=O)N1CCCCC1)CC(=O)N1CCCCC1` [Example 2-277, 4-{bis[2-oxo-2-(piperidin-1-yl)ethyl]amino}-12-cyclohexyl-6,7-dihydro-5-oxa-7a-azadibenzo[a,e]azulene-9-carboxylic acid], less than 100 nM; as for `CSc1ccc2c(c1)N(CCCN1CCCCC1)CCn1c-2c(C2CCCCC2)c2ccc(C(=O)O)cc21` [Example 1-297, 13-cyclohexyl-3-methylsulfanyl-5-[3-(piperidin-1-yl)propyl]-6,7-dihydro-5H-benzo[5,6][1,4]diazepino[7,1-a]indole-10-carboxylic acid dihydrochloride], less than 100 nM.
`COC(C)(C)[C@@H]1CCCN(CCN2CCn3c(c(C4CCCCC4)c4ccc(C(=O)O)cc43)-c3ccc(C)cc32)C1` [Example 1-541, 13-cyclohexyl-5-{2-[(R)-3-(1-methoxy-1-methylethyl)piperidin-1-yl]ethyl}-3-methyl-6,7-dihydro-5H-benzo[5,6][1,4]diazepino[7,1-a]indole-10-carboxylic acid dihydrochloride]: the IC50 was less than 100 nM.
In turn, `CCC1CN(CCN2CCn3c(c(C4CCCCC4)c4ccc(C(=O)O)cc43)-c3ccccc32)CCO1` (centres unmarked) [Example 1-256, 13-cyclohexyl-5-[2-(2-ethylmorpholin-4-yl)ethyl]-6,7-dihydro-5H-benzo[5,6][1,4]diazepino[7,1-a]indole-10-carboxylic acid dihydrochloride] displayed an IC50 of less than 100 nM.
